Test results as given in patent US20080167332A1, “Novel Compounds 243” (priority 2006, published 2008).
pIC50: −log10 of the molar value. Structures can show the parent of a compound that is named as a salt.

Molecular target: T1, recombinant human CCR1 (Homo sapiens, UniProt P32246)
T1 construct: expressed in transfected cells; membranes
T1 sequence (P32246 1-355): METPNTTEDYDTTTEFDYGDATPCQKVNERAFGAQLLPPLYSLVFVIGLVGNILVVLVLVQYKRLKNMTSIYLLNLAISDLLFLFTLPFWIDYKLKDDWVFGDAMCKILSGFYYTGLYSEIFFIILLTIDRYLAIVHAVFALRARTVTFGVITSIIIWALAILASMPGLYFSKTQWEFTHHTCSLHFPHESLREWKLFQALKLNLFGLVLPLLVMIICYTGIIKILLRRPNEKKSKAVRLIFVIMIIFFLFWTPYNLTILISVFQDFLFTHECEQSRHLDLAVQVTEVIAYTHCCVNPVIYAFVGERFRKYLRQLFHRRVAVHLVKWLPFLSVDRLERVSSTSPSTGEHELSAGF
Assay: Human CCR1 binding assay ([125I] MIP-1α displacement)
Conditions: displacement of 33 pM [125I] MIP-1α, HEK-CCR1 membranes; read-out: Result from assay: IC50
Method: HEK293 cells, from ECACC, stably expressing recombinant human CCR1 (HEK-CCR1) were used to prepare cell membranes containing CCR1. The membranes were stored at −70° C. The concentration of membranes of each batch was adjusted to 10% specific binding of 33 pM [^125I] MIP-1α.
100 μL of HEK-CCR1 membranes diluted in assay buffer pH 7.4 ((137 mM NaCl (Merck, Cat No 1.06404), 5.7 mM Glucose (Sigma, Cat No G5400), 2.7 mM KCl (Sigma, Cat No P-9333), 0.36 mM NaH2PO4×H2O (Merck, Cat No 1.06346), 10 mM HEPES (Sigma, Cat No H3375), 0.1% (w/v) Gelatine (Sigma, Cat No G2625)) with the addition of 17500 units/L Bacitracin (Sigma, Cat No B1025) were added to each well of the 96 well filter plate (0.45 μm opaque Millipore cat no MHVB N4550). 12 μL of compound in assay buffer, containing 10% DMSO, was added to give final compound concentrations of 1×10^−5.5−I×10^−9.5 M. 12 μL cold human recombinant MIP-1α (270-LD-050, R&D Systems, Oxford, UK), 10 nM final concentration in assay buffer supplemented with 10% DMSO, was included in certain wells (without compound) as non-specific binding control (NSB). 12 μL assay buffer with 10% DMSO was added to certain wells (without compound) to detect maximal binding (B0).
12 μL [^125I] MIP-1α, diluted in assay buffer to a final concentration in the wells of 33 pM, was added to all wells. The plates with lid were then incubated for 1.5 h at room temperature. After incubation the wells were emptied by vacuum filtration (MultiScreen Resist Vacuum Manifold system, Millipore) and washed once with 200 μL assay buffer. After the wash, all wells received an addition of […] of scintillation fluid (OptiPhase “Supermix”, Wallac Oy, Turko, Finland). Bound [^125I] MIP-1α was measured using a Wallac Trilux 1450 MicroBeta counter. Window settings: Low 5-High 1020, 1-minute counting/well.
The following equation was used to calculate percent displacement.
Percent displacement=1−((cpm test−cpm NSB)/(cpm B0−cpm NSB)) where:
cpm test=average cpm in wells with membranes and compound and [^125I] MIP-1α; NSB=average cpm in the wells with membranes and MIP-1α and [^125I] MIP-1α (non-specific binding); B0=average cpm in wells with membranes and assay buffer and [^125I] MIP-1α (maximum binding).
The molar concentration of compound producing 50% displacement (IC50) was derived using the Excel-based program XLfit (version 2.0.9) to fit data to a 4-parameter logistics function.

pIC50 | Structure (SMILES)
7.14 | CNC(=O)c1cc(Cl)c(OC(C)(C)C(=O)O)cc1OC[C@@H](O)CN1CCC2(CC1)Cc1cc(Cl)cc(C(C)(C)C)c1O2 [Example 22, 2-[5-{[(2S)-3-(7-tert-Butyl-5-chloro-1′H, 3H-spiro[1-benzofuran-2,4′-piperidin]-1′-yl)-2-hydroxypropyl]oxy}-2-chloro-4-(methylcarbamoyl)phenoxy]-2-methylpropanoic acid]
8.98 | CNC(=O)c1cc(Cl)c(OC(C)(C)C(=O)O)cc1OC[C@@H](O)CN1CCC2(CC1)Cc1cc(Cl)ccc1O2 [Example 5, 2-[2-Chloro-5-{[(2S)-3-(5-chloro-1′H,3H-spiro[l-benzofuran-2,4′-piperidin]-1′-yl)-2-hydroxypropyl]oxy}-4-[(methylamino)carbonyl]-phenoxy}-2-methylpropanoic acid TFA]
8.62 | CNC(=O)c1cc(Cl)c(OC(C)(C)C(=O)O)cc1OCC(O)CN1CCC2(CC1)Cc1cc(Cl)ccc1O2 (racemic) [Example 21, 2-{2-Chloro-5-{3-(5-chloro-1′H 3H-spiro[1-benzofuran-2,4′-piperidin]-1′-yl)-2-hydroxypropyl]oxy}-4-dimethylamino)carbonyl]-phenoxy}-2-methyl-propanoic acid trifluoracetate]
8.80 | CN(C)C(=O)c1cc(Cl)c(OC(C)(C)C(=O)O)cc1OC[C@@H](O)CN1CCC2(CC1)Cc1cc(Cl)ccc1O2 [Example 19, 2-{2-Chloro-5-{[(2S)-3-(5-chloro-1′H, 3H-spiro[l-benzofuran-2,4′-piperidin]-1′-yl)-2-hydroxypropyl]oxy}-4-[(dimethylamino)carbonyl]-phenoxy}-2-methylpropanoic acid]
8.69 | O=C(O)COc1cc(OC[C@@H](O)CN2CCC3(CC2)Cc2cc(Cl)ccc2O3)c(C(=O)N2CC[C@H](O)C2)cc1Cl [Example 20, (2-Chloro-5-{[(2S)-3-(5-chloro-1′H,3H-spiro[1-benzofuran-2,4′-piperidin]-1′-yl)-2-hydroxypropyl]oxy}-4-{[(3S)-3-hydroxypyrrolidin-1-yl]carbonyl}phenoxy)acetic acid]
7.94 | CN(C)C(=O)c1cc(Cl)c(OCC(=O)O)cc1OC[C@@H](O)CN1CCC2(CC1)Cc1cc(Cl)ccc1O2 [Example 18, {2-Chloro-5-{[(2S)-3-(5-chloro-1′H,3H-spirol[1-benzofuran-2,4′-piperidin]-1′-yl)-2-hydroxypropyl]oxy}-4-[(dimethylamino)carbonyl]phenoxy}acetic acid]
7.69 | CNC(=O)c1cc(Cl)c(OCC(=O)O)cc1OC[C@@H](O)CN1CCC2(CC1)Cc1cc(Cl)ccc1O2 [Example 4]
8.00 | CC(=O)Nc1ccc(OCC(=O)O)cc1OC[C@@H](O)CN1CCC2(CC1)Cc1cc(Cl)ccc1O2 [Example 2, (4-(acetylamino)-3-{[(2S)-3-(5-chloro-1′H,3H-spiro[1-benzofuran-2,4′-piperidin]-1′-yl)-2-hydroxypropyl]oxy}phenoxy)acetic acid]

Structure (SMILES) | pIC50
CNC(=O)c1cc(Cl)c(OC(C)(C)C(=O)O)cc1OC[C@H](O)CN1CCC2(CC1)Cc1cc(Cl)ccc1O2 [Example 6, 2-{2-Chloro-5-{[(2R)-3-(5-chloro-1′H,3H-spiro[1-benzofuran-2,4′-piperidin]-1′-yl)-2-hydroxypropyl]oxy}-4-[(methylamino)carbonyl]phenoxy}-2-methylpropanoic acid] | 7.96

Same assay, conditions: displacement of 33 pM [125I] MIP-1α, HEK-CCR1 membranes; read-out: Result from assay: pIC50 (converted)

IC50 [nM] | Structure (SMILES)
0.562 | CC(=O)Nc1cc(Cl)c(OCC(=O)O)cc1OC[C@@H](O)CN1CCC2(CC1)Cc1cc(Cl)ccc1O2 [Example 1, (4-(acetylamino)-2-chloro-5-{[(2S)-3-(5-chloro-1′H,3H-spiro[1-benzofuran-2,4′-piperidin]-1′-yl)-2-hydroxypropyl]oxy}phenoxy)acetic acid]
2.24 | CC(=O)Nc1cc(Cl)c(OCC(=O)O)cc1OC[C@@H](O)CN1CCC2(CC1)Cc1cc(F)ccc1O2 [Example 3, (4-(acetylamino)-2-chloro-5-{[(2S)-3-(5-fluoro-1′H,3H-spiro[1-benzofuran-2,4′-piperidin]-1′-yl)-2-hydroxypropyl]oxy}phenoxy)acetic acid, hydrochloride]

Molecular target: T2, human ether-a-go-go-related-gene (hERG)-encoded potassium channel (Homo sapiens, UniProt Q12809)
T2 construct: expressed in transfected cells; host or cells: HEK 293 cell membranes
Assay: hERG-encoded potassium channel binding assay
Conditions: HEK 293 cell membranes expressing the IKR channel, radioligand binding; read-out: hERG binding concentration
Method: This assay, which is described in full detail in example 2, WO2005037052, determines the ability of a test compound to bind to the human ether-a-go-go-related-gene (hERG)-encoded potassium channel. The assay comprises the following steps: a) incubation of HEK 293 cell membranes expressing the IKR channel in the presence of radioligand 3,7-bis[2-(4-nitro[3,5-^3H]phenyl)ethyl]-3,7-diazabicyclo[3.3.1]nonane, in the presence or absence of a test compound; b) quantitation of specifically bound labelled compound in the presence or absence of a test compound; c) calculation of the inhibition of labelled compound binding by the test compound. Similar protocols to determine affinity for the human ether-a-go-go-related-gene (hERG)-encoded potassium channel have been described by Finlayson, K. et al. [Eur. J. Pharmacol. 2001, 412, 203 and Eur. J. Pharmacol. 2001, 430, 147].

T2 sequence (Q12809 whole entry): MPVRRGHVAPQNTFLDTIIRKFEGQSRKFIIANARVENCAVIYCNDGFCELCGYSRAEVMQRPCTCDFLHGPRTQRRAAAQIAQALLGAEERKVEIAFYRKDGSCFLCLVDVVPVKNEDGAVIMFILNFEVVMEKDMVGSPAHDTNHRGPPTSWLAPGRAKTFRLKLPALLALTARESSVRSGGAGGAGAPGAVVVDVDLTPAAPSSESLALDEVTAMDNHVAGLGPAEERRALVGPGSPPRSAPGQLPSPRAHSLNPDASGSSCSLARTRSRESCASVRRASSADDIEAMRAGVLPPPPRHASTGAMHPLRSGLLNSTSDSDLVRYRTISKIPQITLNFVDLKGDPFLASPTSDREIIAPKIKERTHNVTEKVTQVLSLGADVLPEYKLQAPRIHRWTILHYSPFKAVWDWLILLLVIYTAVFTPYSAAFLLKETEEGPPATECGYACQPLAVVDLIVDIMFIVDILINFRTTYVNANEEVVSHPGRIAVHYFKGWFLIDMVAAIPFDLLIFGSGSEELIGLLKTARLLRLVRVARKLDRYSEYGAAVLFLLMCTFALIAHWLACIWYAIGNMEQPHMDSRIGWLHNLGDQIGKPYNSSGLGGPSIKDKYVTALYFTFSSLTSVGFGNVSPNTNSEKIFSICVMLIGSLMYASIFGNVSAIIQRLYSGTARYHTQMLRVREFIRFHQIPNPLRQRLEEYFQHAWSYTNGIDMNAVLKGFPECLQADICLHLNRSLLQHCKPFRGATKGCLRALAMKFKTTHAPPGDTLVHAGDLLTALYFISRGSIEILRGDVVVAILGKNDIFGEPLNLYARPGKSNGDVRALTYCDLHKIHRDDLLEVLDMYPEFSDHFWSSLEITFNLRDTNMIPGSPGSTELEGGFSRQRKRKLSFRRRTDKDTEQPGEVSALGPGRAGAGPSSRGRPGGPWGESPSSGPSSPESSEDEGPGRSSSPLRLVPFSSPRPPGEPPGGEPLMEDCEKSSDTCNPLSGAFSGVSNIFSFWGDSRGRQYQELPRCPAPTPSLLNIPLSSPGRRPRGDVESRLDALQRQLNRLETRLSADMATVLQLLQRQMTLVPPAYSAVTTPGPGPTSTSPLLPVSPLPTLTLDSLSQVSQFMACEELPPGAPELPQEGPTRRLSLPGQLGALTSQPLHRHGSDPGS

Structure (SMILES) | pIC50
CC(=O)Nc1cc(Cl)c(OCC(=O)O)cc1OC[C@@H](O)CN1CCC2(CC1)Cc1cc(Cl)ccc1O2 [Example 1, (4-(acetylamino)-2-chloro-5-{[(2S)-3-(5-chloro-1′H,3H-spiro[1-benzofuran-2,4′-piperidin]-1′-yl)-2-hydroxypropyl]oxy}phenoxy)acetic acid] | < 4.52
